The values that follow come from patent EP3272768A1, “CHIMERIC PEPTIDES USEFUL IN MALARIA PROPHYLAXIS OR TREATMENT” (priority 2016, dated 2018).

This data set has as its system primary human hepatocytes. Format: cell-based. As to the method: A) Overlapping dodecapeptides with two amino acid shift covering the whole […] PfLRR1 protein were bound to a solid support. The membrane was incubated sequentially with PP1 protein, and anti- PP1 antibody, followed by a peroxidase-labeled secondary antibody. […] PfLRR1.1 and PfLRR1.2 are shown. B) PP1 sequence alignment between human and P. falciparum species (SEQ ID NO:16 and 15). • Figures 2A and 2B show in vitro cell viability assay. Primary hepatocytes were treated with or without various concentrations of […] or […] peptides. Absorbance was recorded 72h after. […] The assay was done using parasitemia of 0.5% and hematocrit of 1%. The peptides were added at various concentrations and incubated for 48h and then, fixed. Samples were analyzed by flow cytometry. Results are expressed as percentage of growth inhibition. • Figures 4A and 4B show in vitro effect of chimeric peptides PfLRR1.1 (peptide 1) and PfLRR1.2 (peptide 2) on the hepatic stage of the P. falciparum. […] The culture was fixed with paraformaldehyde (PFA) and analysed by fluorescence microscopy. • Figures 5A and 5B show in vitro effect of peptides PfLRR1.1 and PfLRR1.2 on the hepatic stage of the P. vivax. […] The culture was fixed with PFA and analysed by fluorescence microscopy.
The cell viability was determined using a colorimetric assay based on 3-(4,5-dimethylthiazol- 2-yl)-2,5 diphenyltetrazolium bromide (MTT). […]

Structures are written as SMILES. Peptide text beside a SMILES is read from it.

As to `CC[C@H](C)[C@H](NC(=O)[C@H](CCCCN)NC(=O)[C@H](CCCCN)NC(=O)[C@H](CCCCN)NC(=O)[C@H](CCCCN)NC(=O)[C@@H](N)C(C)C)C(=O)N[C@@H](CCCCN)C(=O)N[C@@H](C)C(=O)N[C@@H](CCC(=O)O)C(=O)N[C@H](C(=O)N[C@@H](CCCCN)C(=O)N[C@H](C(=O)N[C@H](C(=O)N[C@@H](CCC(=O)O)C(=O)N[C@@H](CC(N)=O)C(=O)N[C@@H](CC(C)C)C(=O)N[C@@H](CCC(N)=O)C(=O)N[C@@H](CC(N)=O)C(=O)N[C@@H](CS)C(=O)N[C@@H](CCCCN)C(=O)N[C@@H](CCCCN)C(=O)N[C@@H](CC(C)C)C(=O)N[C@@H](CCCNC(=N)N)C(=O)N[C@@H](CC(C)C)C(=O)N[C@@H](CC(C)C)C(=O)N[C@@H](CCC(=O)O)C(=O)N[C@@H](CC(C)C)C(=O)NCC(=O)N[C@@H](Cc1ccc(O)cc1)C(=O)N[C@@H](CC(N)=O)C(=O)N[C@@H](CCCCN)C(=O)N[C@H](C(=O)N[C@@H](CCCNC(=N)N)C(=O)N[C@@H](CCSC)C(=O)O)[C@@H](C)CC)[C@@H](C)CC)[C@@H](C)CC)[C@@H](C)CC` [PfLRR1.2] (H-VKKKKIKAEIKIIENLQNCKKLRLLELGYNKIRM-OH), the “toxicity for the host cell (primary human hepatocyte)” value is “not toxic”.
For `CC[C@H](C)[C@H](NC(=O)[C@H](CCCCN)NC(=O)[C@H](CCCCN)NC(=O)[C@H](CCCCN)NC(=O)[C@H](CCCCN)NC(=O)[C@@H](N)C(C)C)C(=O)N[C@@H](CCCCN)C(=O)N[C@@H](C)C(=O)N[C@@H](CCC(=O)O)C(=O)N[C@H](C(=O)N[C@@H](CCCCN)C(=O)N[C@H](C(=O)N[C@@H](CCC(=O)O)C(=O)N[C@@H](CC(N)=O)C(=O)N[C@@H](Cc1ccc(O)cc1)C(=O)N[C@@H](CCCNC(=N)N)C(=O)N[C@@H](CCCCN)C(=O)N[C@H](C(=O)N[C@H](C(=O)N[C@H](C(=O)N[C@@H](Cc1c[nH]cn1)C(=O)N[C@H](C(=O)N[C@@H](CC(C)C)C(=O)N1CCC[C@H]1C(=O)N[C@@H](CCC(N)=O)C(=O)N[C@@H](CC(C)C)C(=O)N[C@@H](CCCCN)C(=O)N[C@@H](CCC(N)=O)C(=O)N[C@@H](CC(C)C)C(=O)N[C@@H](CC(=O)O)C(=O)N[C@@H](C)C(=O)N[C@@H](CC(C)C)C(=O)O)[C@@H](C)CC)[C@@H](C)CC)[C@@H](C)CC)[C@@H](C)O)[C@@H](C)CC)[C@@H](C)CC` [PfLRR1.1] (H-VKKKKIKAEIKIENYRKTIIHILPQLKQLDAL-OH) the value was “not toxic”.
